Experimental data: patent US20100129434A1, “COMPOSITIONS AND METHODS FOR THE TREATMENT OF MUCORMYCOSIS AND OTHER FUNGAL DISEASES” (priority 2006, published 2010)
Converted amounts (≈) assume the structure as drawn.

Experiments:
R. oryzae [1] = experiment: Survival of guinea pigs infected with R. oryzae and treated with iron chelators; format: in vivo; details: guinea pigs infected with R. oryzae
Description: The role of iron metabolism in the pathogenesis of mucormycosis allows the possibility of utilizing effective iron chelators for antifungal therapy, including as an adjunctive antifungal therapy.

R. oryzae [2] = experiment: Tissue fungal burden of DKA mice infected with R. oryzae; format: in vivo, BALB/c male mice; details: 3.8×10^3 spores, two doses, brains harvested about 54 h post-infection, P<0.036
Experimental: (§1) Briefly, for in vivo infection, BALB/c male mice (>20 g) were rendered diabetic with a single i.p. injection of 210 mg/kg streptozotocin in 0.2 ml citrate buffer 10 days prior to fungal challenge. […] Mice were infected through the tail vein with the appropriate inocula of R. oryzae. To confirm the inocula, dilutions were streaked on PDA plates and colonies were counted following a 24 h incubation period at room temperature. The primary efficacy endpoint was time to death. As a secondary endpoint, brain fungal burden (the primary target organ) was determined by homogenization by rolling a pipette on organs placed in Whirl-Pak bags (Nasco, Fort Atkinson, Wis.) containing 2 ml saline. The homogenate was serially diluted in 0.85% saline and then quantitatively cultured on PDA. Values were expressed as log 10 cfu g^−1 tissue. All procedures involving mice were approved by the institutional animal use and care committee, following the National Institutes of Health guidelines for animal housing and care.
(§2) For in vivo infection, BALB/c male mice (>20 g) were rendered diabetic with a single i.p. injection of 210 mg/kg streptozotocin in 0.2 ml citrate buffer 10 days prior to fungal challenge. […] For neutropenic mouse model, mice were injected with a single i.p. dose of 200 mg/kg cyclolphosphamide (Bristol Myer Squibb) 2 days prior to infection with R. oryzae. […] Mice were infected through the tail vein with the appropriate inocula of R. oryzae. To confirm the inocula, dilutions were streaked on PDA plates containing 0.1% triton and colonies were counted following a 24 h incubation period at 37° C. The primary efficacy endpoint was time to death. As a secondary endpoint, brain fungal burden (the primary target organ) was determined by homogenization by rolling a pipette on organs placed in Whirl-Pak™ bags (Nasco®, Fort Atkinson, Wis.) containing 1 ml saline. The homogenate was serially diluted in 0.85% saline and then quantitatively cultured on PDA. Values were expressed as log10 cfu g−1 tissue. Finally, for histopathological analysis, infected organs were collected from mice and fixed in 10% zinc formalin. Fixed tissues were embedded in paraffin, and […] sections were stained with haematoxylin and eosin for light microscopy examination. All procedures involving mice were approved by the institutional animal use and care committee, following the National Institutes of Health guidelines for animal housing and care.

R. oryzae 99-880 = experiment: MIC and MFC of deferiprone and deferoxamine against R. oryzae; format: cell-based, Rhizopus oryzae; details: for MFC / MIC: R. oryzae
Experimental: Initially, the in vitro activity of deferiprone against R. oryzae was assessed in this study. Briefly, R. oryzae 99-880 was isolated from a brain abscess of a diabetic patient. The organism was grown on potato dextrose agar (PDA) for 3 days at 37° C. In some experiments, R oryzae was starved for iron by growth on PDA in the presence of 1 mM of ascorbic acid and ferrozine. The sporangiospores were collected in endotoxin free PBS containing 0.01% Tween 80, washed with PBS then counted with hemacytometer to prepare the final inocula. For susceptibility testing, the minimum inhibitory concentration (MIC) and minimum fungicidal concentration (MFC) were determined for Def and deferoxamine by the method of Espinel-Ingroff (J Clin Microbiol 39:954 (2001)).

R. oryzae [3] = experiment: Survival of neutropenic mice infected with R. oryzae; format: in vivo; details: prophylaxis from day −1, Def qod, LAmB qd or both, four doses, placebo 0%
Experimental: as §2
Two days later, mice were infected via the tail-vein with 2.7×10^3 spores of R. oryzae 99-892.

R. oryzae [4] = experiment: Survival of diabetic ketoacidotic (DKA) mice infected with R. oryzae; format: in vivo, BALB/c male mice; details: for survival compared to placebo: 4.3×10^3 spores; for efficacy of Def on administration of FeCl3: Def 100 mg/kg qod plus FeCl3 60 mg/kg iv
Experimental: as §1
Deferiprone (Apotex Research Inc.) was dissolved in iron-free water and administered intraperitoneally at 50, 100, or 200 mg/kg qd or qod (every other day). Treatment was begun 24 h post infection and continued for a total of 4 doses. Control groups were treated with the diluent, 5% dextrose water.
Deferiprone is known to form molecular complexes with ferric iron (^3+Fe) in a 1:3 ratio of iron to deferiprone. Based on the known molecular weights of ferric chloride (FeCl3, molecular weight 162.22 g/mol) and deferiprone (molecular weight 139 g/mol), a 60 mg/kg dose of FeCl3 was calculated to result in a significant excess of ^3+Fe vs. a 100 mg/kg dose of deferiprone given to an 18 g mouse: ^3+Fe moles=(0.060 g/kg*0.018 kg [mouse weight]/162.22 g/mol)=6.5×10^−6 mol vs. deferiprone moles=(0.1 g/kg*0.018 kg [mouse weight]/139 g/mol)=1.3×10^−5 mol Ratio=1:2 moles of ^3+Fe to deferiprone, which is more than that required to achieve a saturating 1:3 ratio.
Statistical analysis was performed using the nonparametric log rank test was used to determine differences in survival times of the mice. Differences in tissue fungal burdens in the infected organs were compared by the nonparametric Steel test for multiple comparisons. P values of <0.05 were considered significant.
Deferasirox (Novartis Pharmaceuticals, Basel, Switzerland) was suspended in 0.5% hydroxypropylcellulose (Klucel) and administered by oral gavage at 1, 3, or 10 mg/kg […] (qd) or every other day (qod). Treatment was begun 24 h post infection and continued for a total of 5 or 7 doses. Control groups were treated with the diluent, 5% dextrose water and 0.5% Klucel. In some experiments, a saturating dose of free iron was administered with deferasirox. Deferasirox is known to form molecular complexes with ferric iron (^3+Fe) in a 1:2 ratio of iron to deferasirox. Based on the known molecular weights of ferric chloride (FeCl3, molecular weight 162.22 g/mol) and deferasirox (molecular weight 373.4 g/mol), a 2.8 mg/kg dose of FeCl3 was calculated to result in a significant excess of ^3+Fe vs. a 10 mg/kg dose of deferasirox given to an 18 g mouse: ^3+Fe moles=(0.0028 g/kg*0.018 kg [mouse weight]/162.22 g/mol)=3×10^−7 mol vs. deferasirox moles=(0.01 g/kg*0.018 kg [mouse weight]/373.4 g/mol)=5×10^−7 mol Ratio=1:1.7 moles of ^3+Fe to deferasirox, which is more than that required to achieve a saturating 1:2 ratio.
The nonparametric log rank test was used to determine differences in survival times of the mice. Differences in tissue fungal burdens, splenic lymphocyte frequencies, and whole organ cytokines in the infected organs were compared by the Mann Whitney U test. P values of <0.05 were considered significant.

invasive mucormycosis = details: patients treated with deferoxamine; cited from earlier work
[5] = Rhizopus arrhizus, 99880, 24 h, 24 h
[6] = Rhizopus arrhizus, 99880, 48 h, 48 h

| SMILES | Mean (±SD) Survival Time (R. oryzae [1]) [days] | brain fungal burden compared to placebo (R. oryzae [2]) | static or cidal effect against R. oryzae (R. oryzae 99-880; 24 h of incubation) | static or cidal effect against R. oryzae (R. oryzae 99-880; 24 h of incubation, listed as deferiprone) | static or cidal effect against R. oryzae (R. oryzae 99-880; 48 h of incubation) | static or cidal effect against R. oryzae (R. oryzae 99-880; 48 h of incubation, listed as deferiprone) | MFC (R. oryzae 99-880; 48 h) [µg/mL] | MIC (R. oryzae 99-880; [5]) [µg/mL] | MIC (R. oryzae 99-880; [6]) [µg/mL] | survival (R. oryzae [3]) [%] | 28-day survival (R. oryzae [4]; DKA mice infected with R. oryzae, treatment from 24 h post infection, 4 doses, LAmB 15 mg/kg qd iv, Def 100 mg/kg qod ip, placebo 0%) [%] | survival compared to placebo (R. oryzae [4]; DKA mice, 50 mg/kg qd or qod) | survival compared to placebo (R. oryzae [4]; DKA mice, 100 mg/kg qd or 200 mg/kg qd or qod) | survival compared to placebo (R. oryzae [4]; DKA mice, 100 mg/kg qod, 4 doses from 24 h post infection, P=0.027) | efficacy of Def on administration of FeCl3 (R. oryzae [4]; DKA mice) | efficacy of Def on administration of FeCl3 (R. oryzae [4]; DKA mice, listed as Def) | 28-day survival compared to placebo (R. oryzae [4]; DKA mice, LAmB 15 mg/kg qd or deferiprone 100 mg/kg qod, P<0.003 Log Rank) | MFC (R. oryzae 99-880; 24 h, listed as deferoxamine) [µg/mL] | MFC (R. oryzae 99-880; 48 h, listed as deferoxamine) [µg/mL] | mortality of invasive mucormycosis (invasive mucormycosis) [%] |
| --- | --- | --- | --- | --- | --- | --- | --- | --- | --- | --- | --- | --- | --- | --- | --- | --- | --- | --- | --- | --- |
| CCc1c(O)c(=O)ccn1CC [CP94] | 8.7 ± 1.0 | – | – | – | – | – | – | – | – | – | – | – | – | – | – | – | – | – | – | – |
| Cc1c(O)c(=O)ccn1C [Deferiprone, 1,2 dimethyl-3-hydroxypyrid-4-1] | 16.2 ± 4.0 | reduced brain fungal burden | static | static effect | cidality | cidal effect | 6.25 (≈ 44.9 µM) | 3.12 (≈ 22.4 µM) | 6.25 (≈ 44.9 µM) | 22 | 30 | did not improve survival | did not improve survival | improved survival | completely abrogated | abrogated | improved 28-day survival | – | – | – |
| CC(=O)N(O)CCCCCNC(=O)CCC(=O)N(O)CCCCCNC(=O)CCC(=O)N(O)CCCCCN [Deferoxamine] | 4.8 ± 1.1 | – | – | – | – | – | – | > 100 | > 100 | – | – | – | – | – | – | – | – | > 100 | > 100 | > 80 |
